For 27 compounds, IC50 results are on record in patent US8129417B2, “Substituted octahydrocyclopenta[C]pyrrol-4-amines as calcium channel blockers” (Abbott Laboratories, priority 2008, dated 2012).

pIC50: −log10 of the molar value.

For this assay, the target named is human Cav2.2 (Homo sapiens, UniProt Q00975). Put plainly: Assessment of calcium channel activity using FLIPR (Ca2+ influx in IMR32 cells). The class given is cell-based. As to conditions: 60 minute pre-incubation with compound, 2 μM nifedipine, depolarized with 80 mM KCl. In outline: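 IMR32 neuroblastoma cells seeded at 1-1.2×10^5 cells/well and grown 48 h at 37 °C before FLIPR Ca2+ influx read. Percent inhibition at each concentration vs no-inhibitor activity; IC50 by non-linear sigmoidal dose-response fit.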
Sequence of human Cav2.2 (Q00975 whole entry): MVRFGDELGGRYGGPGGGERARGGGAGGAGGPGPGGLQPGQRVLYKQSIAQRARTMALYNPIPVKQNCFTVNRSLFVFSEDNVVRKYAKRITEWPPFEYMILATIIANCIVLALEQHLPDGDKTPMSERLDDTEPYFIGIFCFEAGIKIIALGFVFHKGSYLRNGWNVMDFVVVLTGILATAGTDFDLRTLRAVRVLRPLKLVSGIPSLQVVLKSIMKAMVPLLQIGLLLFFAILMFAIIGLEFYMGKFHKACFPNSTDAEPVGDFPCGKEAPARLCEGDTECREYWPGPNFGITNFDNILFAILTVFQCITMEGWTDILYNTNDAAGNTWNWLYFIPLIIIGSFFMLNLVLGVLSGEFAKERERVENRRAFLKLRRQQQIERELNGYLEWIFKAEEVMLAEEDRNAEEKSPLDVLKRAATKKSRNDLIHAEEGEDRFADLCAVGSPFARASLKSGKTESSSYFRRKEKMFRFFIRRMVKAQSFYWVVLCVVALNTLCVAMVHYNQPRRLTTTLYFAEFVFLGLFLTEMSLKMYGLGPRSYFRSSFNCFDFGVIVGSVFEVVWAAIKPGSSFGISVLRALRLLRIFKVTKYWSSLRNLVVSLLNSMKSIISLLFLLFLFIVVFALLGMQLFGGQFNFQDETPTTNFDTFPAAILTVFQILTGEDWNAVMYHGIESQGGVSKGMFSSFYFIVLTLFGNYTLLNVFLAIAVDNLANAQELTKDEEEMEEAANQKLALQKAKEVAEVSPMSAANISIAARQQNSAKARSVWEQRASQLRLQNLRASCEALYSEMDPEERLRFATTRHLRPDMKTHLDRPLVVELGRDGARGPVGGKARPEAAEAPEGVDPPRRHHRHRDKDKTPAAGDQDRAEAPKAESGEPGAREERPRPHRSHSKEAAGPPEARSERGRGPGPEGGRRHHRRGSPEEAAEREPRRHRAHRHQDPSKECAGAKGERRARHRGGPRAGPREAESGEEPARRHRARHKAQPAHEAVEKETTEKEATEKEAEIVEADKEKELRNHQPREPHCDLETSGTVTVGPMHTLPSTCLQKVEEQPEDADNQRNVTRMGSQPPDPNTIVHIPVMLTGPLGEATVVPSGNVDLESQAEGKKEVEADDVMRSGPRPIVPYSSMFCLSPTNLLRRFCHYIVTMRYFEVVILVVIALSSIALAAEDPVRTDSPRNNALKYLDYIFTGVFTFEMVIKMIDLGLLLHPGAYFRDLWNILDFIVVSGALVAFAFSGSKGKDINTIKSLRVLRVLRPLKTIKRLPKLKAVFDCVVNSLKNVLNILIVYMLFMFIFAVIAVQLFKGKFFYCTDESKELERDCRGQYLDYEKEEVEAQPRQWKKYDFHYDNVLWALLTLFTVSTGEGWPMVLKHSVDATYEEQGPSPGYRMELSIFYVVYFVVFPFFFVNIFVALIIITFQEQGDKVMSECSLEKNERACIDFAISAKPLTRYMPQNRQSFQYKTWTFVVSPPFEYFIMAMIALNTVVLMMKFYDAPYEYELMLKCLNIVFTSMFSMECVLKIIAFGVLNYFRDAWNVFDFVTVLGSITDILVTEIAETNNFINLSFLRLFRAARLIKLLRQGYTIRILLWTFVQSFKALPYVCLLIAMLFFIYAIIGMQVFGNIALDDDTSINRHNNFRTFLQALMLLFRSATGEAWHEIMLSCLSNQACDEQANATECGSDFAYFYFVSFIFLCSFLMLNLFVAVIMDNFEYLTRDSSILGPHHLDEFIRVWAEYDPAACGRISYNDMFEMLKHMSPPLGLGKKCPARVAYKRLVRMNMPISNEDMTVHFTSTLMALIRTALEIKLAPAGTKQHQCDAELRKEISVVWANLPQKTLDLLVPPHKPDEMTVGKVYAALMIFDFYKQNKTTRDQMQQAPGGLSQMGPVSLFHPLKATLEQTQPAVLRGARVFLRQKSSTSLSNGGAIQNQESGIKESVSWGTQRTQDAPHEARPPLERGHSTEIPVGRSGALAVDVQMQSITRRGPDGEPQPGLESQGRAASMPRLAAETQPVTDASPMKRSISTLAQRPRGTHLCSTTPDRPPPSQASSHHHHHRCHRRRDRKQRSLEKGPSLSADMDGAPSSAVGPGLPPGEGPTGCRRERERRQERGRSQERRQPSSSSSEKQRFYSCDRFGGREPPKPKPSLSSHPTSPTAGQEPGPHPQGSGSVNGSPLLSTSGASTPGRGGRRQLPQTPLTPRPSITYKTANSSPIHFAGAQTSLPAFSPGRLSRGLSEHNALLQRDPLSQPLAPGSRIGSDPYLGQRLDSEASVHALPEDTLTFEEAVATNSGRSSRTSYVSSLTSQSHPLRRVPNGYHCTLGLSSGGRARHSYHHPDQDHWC
Sequence of human Cav2.2 (P54289 25-946 partner limits assumed): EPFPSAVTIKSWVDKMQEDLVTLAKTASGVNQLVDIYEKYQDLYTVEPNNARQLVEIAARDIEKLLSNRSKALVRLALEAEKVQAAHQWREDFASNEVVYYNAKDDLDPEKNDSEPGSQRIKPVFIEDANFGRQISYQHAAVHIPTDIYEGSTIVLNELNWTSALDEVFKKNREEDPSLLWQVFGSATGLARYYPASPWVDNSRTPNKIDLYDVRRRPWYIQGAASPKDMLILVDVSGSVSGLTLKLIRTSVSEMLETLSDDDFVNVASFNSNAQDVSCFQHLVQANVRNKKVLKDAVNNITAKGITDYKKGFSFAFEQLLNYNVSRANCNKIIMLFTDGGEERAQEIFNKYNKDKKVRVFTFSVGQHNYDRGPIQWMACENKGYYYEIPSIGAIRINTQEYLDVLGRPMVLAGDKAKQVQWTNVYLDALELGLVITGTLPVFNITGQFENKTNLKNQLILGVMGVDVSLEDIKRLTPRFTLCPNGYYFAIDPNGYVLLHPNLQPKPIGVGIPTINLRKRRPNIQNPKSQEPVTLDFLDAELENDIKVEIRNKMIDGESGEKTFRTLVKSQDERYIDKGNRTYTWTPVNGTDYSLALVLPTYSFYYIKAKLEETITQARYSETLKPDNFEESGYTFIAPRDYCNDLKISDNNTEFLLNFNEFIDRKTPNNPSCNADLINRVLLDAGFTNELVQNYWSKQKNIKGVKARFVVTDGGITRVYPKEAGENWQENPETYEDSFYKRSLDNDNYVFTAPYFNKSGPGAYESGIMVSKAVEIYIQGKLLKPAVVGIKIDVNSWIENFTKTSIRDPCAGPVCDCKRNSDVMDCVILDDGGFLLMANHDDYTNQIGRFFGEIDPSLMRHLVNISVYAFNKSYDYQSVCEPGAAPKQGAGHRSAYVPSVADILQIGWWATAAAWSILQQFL
Sequence of human Cav2.2 (P54289 947-1103 partner limits assumed): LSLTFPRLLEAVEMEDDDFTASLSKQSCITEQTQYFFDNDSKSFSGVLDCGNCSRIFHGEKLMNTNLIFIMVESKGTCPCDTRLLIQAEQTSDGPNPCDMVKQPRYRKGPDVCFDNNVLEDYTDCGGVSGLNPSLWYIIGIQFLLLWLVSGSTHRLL
Sequence of human Cav2.2 (P54284 whole entry partner): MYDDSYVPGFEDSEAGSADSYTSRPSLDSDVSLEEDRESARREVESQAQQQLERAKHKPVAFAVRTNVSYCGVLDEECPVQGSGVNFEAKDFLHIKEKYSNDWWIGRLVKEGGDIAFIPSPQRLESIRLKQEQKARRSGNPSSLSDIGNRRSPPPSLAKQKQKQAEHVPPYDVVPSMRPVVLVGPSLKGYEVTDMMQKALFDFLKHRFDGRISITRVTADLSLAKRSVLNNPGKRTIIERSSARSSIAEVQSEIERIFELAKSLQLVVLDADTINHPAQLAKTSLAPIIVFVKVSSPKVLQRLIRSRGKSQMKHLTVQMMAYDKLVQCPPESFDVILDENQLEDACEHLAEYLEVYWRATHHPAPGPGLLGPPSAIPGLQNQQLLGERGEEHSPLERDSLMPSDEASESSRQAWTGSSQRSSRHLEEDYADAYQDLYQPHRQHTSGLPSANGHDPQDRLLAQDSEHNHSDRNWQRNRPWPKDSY
With `CC(C)N[C@@H](CC(C)(C)C)C(=O)N[C@H]1CC[C@@H]2CN(S(=O)(=O)c3ccc(C(F)(F)F)cc3Cl)C[C@@H]21` [Example 487, N^1-((3aR,4S,6aS)-2-{[2-chloro-4-(trifluoromethyl)phenyl]sulfonyl}octahydrocyclopenta[c]pyrrol-4-yl)-N^2-isopropyl-4-methyl-L-leucinamide], the pIC50 (as a rule, −log10 of the IC50, conventionally taken in molar units) was 6.25. For the compound `CC(C)N[C@@H](CC(C)(C)C)C(=O)N[C@H]1CC[C@@H]2CN(c3ccc(C(F)(F)F)cn3)C[C@@H]21` [Example 490, N^2-isopropyl-4-methyl-N^1-{(3aR,4S,6aS)-2-[5-(trifluoromethyl)pyridin-2-yl]octahydrocyclopenta[c]pyrrol-4-yl}-L-leucinamide], the negative logarithm of the IC50 (pIC50) is 5.51. Regarding `CC(C)N[C@@H](CC(C)(C)C)C(=O)N[C@H]1CC[C@@H]2CN(c3cccc(C(F)(F)F)n3)C[C@@H]21` [Example 491, N^2-isopropyl-4-methyl-N^1-{(3aR,4S,6aS)-2-[6-(trifluoromethyl)pyridin-2-yl]octahydrocyclopenta[c]pyrrol-4-yl}-L-leucinamide], the pIC50 is 6.59. To `CC(C)N[C@@H](CC(C)(C)C)C(=O)N1C[C@H]2CC[C@H](NC(=O)C(c3ccc(F)cc3)c3ccc(F)cc3)[C@H]2C1` [Example 492, 2,2-bis(4-fluorophenyl)-N-[(3aR,4S,6aS)-2-(N-isopropyl-4-methyl-L-leucyl)octahydrocyclopenta[c]pyrrol-4-yl]acetamide] belongs 5.70; to `CC(C)C[C@H](NC(C)C)C(=O)N[C@H]1CC[C@@H]2CN(S(=O)(=O)c3cccc(C(F)(F)F)c3)C[C@@H]21` [Example 496, N^2-isopropyl-N^1-((3aR,4S,6aS)-2-{[3-(trifluoromethyl)phenyl]sulfonyl}octahydrocyclopenta[c]pyrrol-4-yl)-L-leucinamide], 6.28; to `CC(C)C[C@@H](C(=O)N[C@H]1CC[C@@H]2CN(S(=O)(=O)c3cccc(C(F)(F)F)c3)C[C@@H]21)N(C)C` [Example 497, N^2,N^2-dimethyl-N^1-((3aR,4S,6aS)-2-{[3-(trifluoromethyl)phenyl]sulfonyl}octahydrocyclopenta[c]pyrrol-4-yl)-L-leucinamide], 6.24. Turning to `CC(C)(C)C[C@H](NC1CC1)C(=O)N[C@H]1CC[C@@H]2CN(S(=O)(=O)c3ccc(C(F)(F)F)cc3)C[C@@H]21` [Example 499, N^2-cyclopropyl-4-methyl-N^1-((3aR,4S,6aS)-2-{[4-(trifluoromethyl)phenyl]sulfonyl}octahydrocyclopenta[c]pyrrol-4-yl)-L-leucinamide], the pIC50 was 5.57. With `CC(C)(C)C[C@H](NC1CCCC1)C(=O)N[C@H]1CC[C@@H]2CN(S(=O)(=O)c3ccc(C(F)(F)F)cc3)C[C@@H]21` [Example 501, N^2-cyclopentyl-4-methyl-N^1-((3aR,4S,6aS)-2-{[4-(trifluoromethyl)phenyl]sulfonyl}octahydrocyclopenta[c]pyrrol-4-yl)-L-leucinamide] the figure was 6.09. To `CC(C)(C)C[C@H](NC1CCCCC1)C(=O)N[C@H]1CC[C@@H]2CN(S(=O)(=O)c3ccc(C(F)(F)F)cc3)C[C@@H]21` [Example 502, N^2-cyclohexyl-4-methyl-N^1-((3aR,4S,6aS)-2-{[4-(trifluoromethyl)phenyl]sulfonyl}octahydrocyclopenta[c]pyrrol-4-yl)-L-leucinamide] belongs 6.01; to `CCC(CC)N[C@@H](CC(C)(C)C)C(=O)N[C@H]1CC[C@@H]2CN(S(=O)(=O)c3ccc(C(F)(F)F)cc3)C[C@@H]21` [Example 503, N^2-(1-ethylpropyl)-4-methyl-N^1-((3aR,4S,6aS)-2-{[4-(trifluoromethyl)phenyl]sulfonyl}octahydrocyclopenta[c]pyrrol-4-yl)-L-leucinamide], 6.05. Turning to `CC(C)(C)C[C@H](NC1CCC1)C(=O)N[C@H]1CC[C@@H]2CN(S(=O)(=O)c3ccc(C(F)(F)F)cc3)C[C@@H]21` [Example 504, N^2-cyclobutyl-4-methyl-N^1-((3aR,4S,6aS)-2-{[4-(trifluoromethyl)phenyl]sulfonyl}octahydrocyclopenta[c]pyrrol-4-yl)-L-leucinamide], the pIC50 is 6.04. Consider `CCC[C@H](NC1CCCCC1)C(=O)N[C@H]1CC[C@@H]2CN(S(=O)(=O)c3ccc(C(F)(F)F)cc3)C[C@@H]21` [Example 507, N^2-cyclohexyl-N^1-((3aR,4S,6aS)-2-{[4-(trifluoromethyl)phenyl]sulfonyl}octahydrocyclopenta[c]pyrrol-4-yl)-L-norvalinamide], for which the pIC50 is 6.06. `CC(C)(C)C[C@H](NC1CCCC1)C(=O)N[C@H]1CC[C@@H]2CN(C(=O)[C@H](CC(C)(C)C)NC3CCCC3)C[C@@H]21` [Example 508, N^2-cyclopentyl-N^1-[(3aR,4S,6aS)-2-(N-cyclopentyl-4-methyl-L-leucyl)octahydrocyclopenta[c]pyrrol-4-yl]-4-methyl-L-leucinamide]: the pIC50 is 5.07. Take `CC(C)C[C@@H](C(=O)N[C@@H]1CC[C@H]2CN(Cc3ccccc3)C[C@H]21)N(C)CC(C)(C)C` [Example 510, N^1-[(3aS,4R,6aR)-2-benzyloctahydrocyclopenta[c]pyrrol-4-yl]-N^2-methyl-N^2-neopentyl-L-leucinamide]: the pIC50 was 5.77. To `CC(C)C[C@@H](C(=O)N[C@@H]1CC[C@H]2CN(Cc3ccccc3)C[C@H]21)N(C)CCC(C)(C)C` [Example 511, N^1-[(3aS,4R,6aR)-2-benzyloctahydrocyclopenta[c]pyrrol-4-yl]-N^2-(3,3-dimethylbutyl)-N^2-methyl-L-leucinamide] belongs 5.67; to `CC(C)C[C@@H](C(=O)N[C@@H]1CC[C@H]2CN(S(=O)(=O)c3cccc(C(F)(F)F)c3)C[C@H]21)N(C)C` [Example 512, N^2,N^2-dimethyl-N^1-((3aS,4R,6aR)-2-{[3-(trifluoromethyl)phenyl]sulfonyl}octahydrocyclopenta[c]pyrrol-4-yl)-L-leucinamide], 6.33; to `CC(C)C[C@@H](C(=O)N[C@@H]1CC[C@H]2CN(Cc3ccccc3)C[C@H]21)N(C)Cc1ccc(F)cc1` [Example 513, N^1-[(3aS,4R,6aR)-2-benzyloctahydrocyclopenta[c]pyrrol-4-yl]-N^2-(4-fluorobenzyl)-N^2-methyl-L-leucinamide], 5.67. Take `CC(C)[C@@H](CC(=O)N[C@H]1CC[C@@H]2CN(S(=O)(=O)c3cccc(C(F)(F)F)c3)C[C@@H]21)NS(C)(=O)=O` [Example 515, (3R)-4-methyl-3-[(methylsulfonyl)amino]-N-((3aR,4S,6aS)-2-{[3-(trifluoromethyl)phenyl]sulfonyl}octahydrocyclopenta[c]pyrrol-4-yl)pentanamide]: the pIC50 was 5.50.

Regarding `CC(C)C[C@H](NS(C)(=O)=O)C(=O)N[C@H]1CC[C@@H]2CN(Cc3cccc(C(F)(F)F)c3)C[C@@H]21` [Example 516, N^2-(methylsulfonyl)-N^1-{(3aR,4S,6aS)-2-[3-(trifluoromethyl)benzyl]octahydrocyclopenta[c]pyrrol-4-yl}-L-leucinamide], the pIC50 was 5.52.

For the compound `CC(C)C[C@@H](NS(C)(=O)=O)C(=O)N[C@H]1CC[C@@H]2CN(Cc3cccc(C(F)(F)F)c3)C[C@@H]21` [Example 517, N^2-(methylsulfonyl)-N^1-{(3aR,4S,6aS)-2-[3-(trifluoromethyl)benzyl]octahydrocyclopenta[c]pyrrol-4-yl}-D-leucinamide], the pIC50 is 5.35. Turning to `CCN([C@@H](CC(C)C)C(=O)N[C@H]1CC[C@@H]2CN(Cc3cccc(C(F)(F)F)c3)C[C@@H]21)S(C)(=O)=O` [Example 518, N^2-ethyl-N^2-(methylsulfonyl)-N^1-{(3aR,4S,6aS)-2-[3-(trifluoromethyl)benzyl]octahydrocyclopenta[c]pyrrol-4-yl}-L-leucinamide], the pIC50 was 6.09. With `CC(C)(C)C[C@H](NS(C)(=O)=O)C(=O)N[C@H]1CC[C@@H]2CN(Cc3ccc(C(F)(F)F)cc3)C[C@@H]21` [Example 519, 4-methyl-N^2-(methylsulfonyl)-N^1-{(3aR,4S,6aS)-2-[4-(trifluoromethyl)benzyl]octahydrocyclopenta[c]pyrrol-4-yl}-L-leucinamide] the figure was 5.29; with `CCC[C@H](NS(C)(=O)=O)C(=O)N[C@H]1CC[C@@H]2CN(Cc3ccc(C(F)(F)F)cc3)C[C@@H]21` [Example 521, N^2-(methylsulfonyl)-N^1-{(3aR,4S,6aS)-2-[4-(trifluoromethyl)benzyl]octahydrocyclopenta[c]pyrrol-4-yl}-L-norvalinamide], 5.02. With `CC(C)C[C@H](NS(=O)(=O)C(C)C)C(=O)N[C@@H]1CC[C@H]2CN(Cc3cccc(C(F)(F)F)c3)C[C@H]21` [Example 522, N^2-(isopropylsulfonyl)-N^1-{(3aS,4R,6aR)-2-[3-(trifluoromethyl)benzyl]octahydrocyclopenta[c]pyrrol-4-yl}-L-leucinamide] the figure was 5.54; with `CC(C)C[C@H](NS(=O)(=O)C1CCCC1)C(=O)N[C@@H]1CC[C@H]2CN(Cc3cccc(C(F)(F)F)c3)C[C@H]21` [Example 524, N^2-(cyclopentylsulfonyl)-N^1-{(3aS,4R,6aR)-2-[3-(trifluoromethyl)benzyl]octahydrocyclopenta[c]pyrrol-4-yl}-L-leucinamide], 5.68. With `CC(C)OC(=O)N[C@@H](CC(C)(C)C)C(=O)N[C@H]1CC[C@@H]2CN(Cc3ccc(C(F)(F)F)cc3)C[C@@H]21` [Example 525, Isopropyl (S)-4,4-dimethyl-1-oxo-1-((3aR,4S,6aS)-2-(4-(trifluoromethyl)benzyl)octahydrocyclopenta[c]pyrrol-4-ylamino)pentan-2-ylcarbamate] the figure was 5.86; with `CC(C)OC(=O)N[C@H](C(=O)N[C@H]1CC[C@@H]2CN(Cc3ccc(C(F)(F)F)cc3)C[C@@H]21)C(C)(C)C` [Example 526, Isopropyl (S)-3,3-dimethyl-1-oxo-1-((3aR,4S,6aS)-2-(4-(trifluoromethyl)benzyl)octahydrocyclopenta[c]pyrrol-4-ylamino)butan-2-ylcarbamate], 5.56.
